Measurements as given in patent publication EP4725507A1, “POLYPEPTIDE CONJUGATE, PHARMACEUTICAL COMPOSITION CONTAINING POLYPEPTIDE CONJUGATE AND USE THEREOF” (Nanjing Anji Biotechnology Co., Ltd., priority 2023, dated 2025).
Values after ≈ are worked out from the molar mass of the structure shown. One block for each compound: values may come before it.

Key:
[1] = test system: non-small cell lung cancer A549 xenograft tumors; experiment: In vivo tumor-inhibitory activity of DOC-AI, A549 xenograft; parameters: species or system BALB/c nude mice; conditions: 6.20 µmol/Kg, 4 days on, 3 days off until day 21
Protocol: Non-small cell lung cancer A549 cells in the vigorous growth stage were taken and inoculated subcutaneously into the right axilla of BALB/c nude mice (Nanjing Zhonghua Biotechnology Co., Ltd.) under sterile conditions, with a cell inoculation amount of 1×10^7. The diameter of transplanted tumors in nude mice was measured with a vernier caliper. When the tumors grew to approximately 50 mm^3, 30 tumor-bearing nude mice with good growth status and relatively uniform tumor size were selected and divided into 5 groups, with 6 mice in each group. The administration frequency was continuous administration for 4 days followed by an interval of 3 days, and this cycle was repeated until day 21. […] The tumor diameter was measured every other day, and the body weight of the nude mice was weighed simultaneously during the measurement of the tumor diameter. After 21 days of administration, the nude mice were euthanized, the tumor inhibition rate (%) was calculated, and the tumor masses were peeled off and weighed.

[2] = test system: gastric cancer MKN45 xenograft tumors; experiment: In vivo tumor-inhibitory activity of DOC-AI, MKN45 xenograft; parameters: species or system BALB/c nude mice; conditions: 6.20 µmol/Kg
Protocol: (§1) Non-small cell lung cancer A549 cells and human gastric cancer MKN-45 cells were preserved in F12-K medium containing 10% fetal bovine serum and 1% penicillin + streptomycin, and incubated at 37°C with 5% CO2 and 95% humidity. The aforementioned cells were cultured in T175 flasks with an experimental cell density of 80%. The aforementioned cell lines were mycoplasma-negative. Both A549 cells and MKN-45 cells were provided by Nanjing Anji Biotechnology Co., Ltd.
Gastric cancer MKN45 cells in the vigorous growth stage were taken and inoculated subcutaneously into the right axilla of BALB/c nude mice (Hangzhou Ziyuan Laboratory Animal Technology Co., Ltd.) under sterile conditions, with a cell inoculation amount of 1×10^7. The diameter of transplanted tumors in nude mice was measured with a vernier caliper. When the tumors grew to approximately 50 mm^3, 18 tumor-bearing nude mice with good growth status and relatively uniform tumor size were selected and divided into 3 groups, with 6 mice in each group. The administration frequency was once every 3 days, and this cycle was repeated until day 21. The anti-tumor effect in the nude mice was dynamically observed by measuring the tumor diameter. The tumor diameter was measured every other day, and the body weight of the nude mice was weighed simultaneously during the measurement of the tumor diameter. After 21 days of administration, the nude mice were euthanized, the tumor inhibition rate (%) was calculated, and the tumor masses were peeled off and weighed. Table 7 Results of Detection of In Vivo Tumor-Inhibitory Activity of DOC-AI

[3] = Solubility in water (HPLC, saturated solution); assay type: physicochemical; conditions: thermodynamic from solid, in water (ultrapure)
Protocol: 25, 50, 100, 200, 300, and 400 µL of the above stock solutions were precisely measured, added into 1 mL volumetric flasks, and diluted to the mark with methanol to obtain a series of standard solutions with concentrations of 25, 50, 100, 200, 300, and 400 µg/mL, respectively. The peak areas of the series of standard solutions were detected by HPLC (mobile phase: 0.065% TFA in water + 0.05% TFA; chromatographic column: YMC-Triart C18; wavelength: 220 nm) to construct a concentration-peak area standard curve, where the abscissa represents concentration and the ordinate represents peak area.
The peak area of the sample was detected by HPLC, and its saturation in water was calculated through the concentration-peak area standard curve. Table 6 Results of detection of solubility of polypeptide conjugates in water

[4] = test system: U87-MG (human brain glioblastoma cells); experiment: Tumor cell proliferation inhibition (CCK8); assay type: cell-based; conditions: U-87 MG, 72 h
Excerpt: (§2) Human highly metastatic hepatocellular carcinoma cells HCCLM3, human highly metastatic gastric cancer cells MKN45, human gastric cancer cells BGC-823 and MGC-803, non-small cell lung cancer cells A549, human pancreatic cancer cells ASPC-1, human colon cancer cells LoVo, human ovarian cancer cells A2780, human cervical cancer cells SiHa, human malignant melanoma cells SK-mel-2 and M14, human osteosarcoma cells Saos-2, human bladder transitional cell carcinoma cells T24, human brain glioblastoma cells U87-MG, human lymphoma cells Raji, and human epidermal cancer cells A431 were selected for the experiment. Among them, HCCLM3 cells, MKN45 cells, BGC-823 cells, MGC-803 cells, A431 cells and A549 cells were provided by Nanjing Anji Biotechnology Co., Ltd., and the other cells were provided by Nanjing Ouji Pharmaceutical Technology Service Co., Ltd.
(§3) The aforementioned tumor cells were preserved in a medium containing 10% fetal bovine serum and 1% penicillin-streptomycin, and incubated at 37°C with 5% CO2 and 95% humidity. The aforementioned tumor cells were cultured in T75 flasks with an experimental cell density of 80%. The aforementioned tumor cell lines were mycoplasma-negative.
(§4) Tumor cells in the logarithmic growth phase were taken for the experiment. The cells were digested, counted, and prepared into a cell suspension with a concentration of 1×10^5 cells/mL, which was then inoculated into a 96-well plate (100 µL per well). The 96-well plate was incubated in a 37°C, 5% CO2 incubator for 24 hours. […] After incubating the plate in the incubator for 72 h, the cell morphology of each group was observed under a microscope. Then, 10 µL of CCK8 solution (Nanjing Enjing Biotechnology Co., Ltd.) was added to each well, and the plate was further incubated in the cell incubator for 4 h. After incubation, the absorbance was measured at 450 nm, and the tumor cell proliferation inhibition rate was calculated. The efficiency ratio was the ratio of the IC50 value of the free drug to that of the polypeptide conjugate. Table 1 Tumor cell proliferation inhibition rates of polypeptide conjugates

[5] = test system: A549 (non-small cell lung cancer cells); experiment: Tumor cell proliferation inhibition (CCK8); assay type: cell-based; conditions: Homo sapiens, 72 h
Excerpt: as §2, §3, §4

[6] = test system: SK-mel-2 (human malignant melanoma cells); experiment: Tumor cell proliferation inhibition (CCK8); assay type: cell-based; conditions: 72 h
Excerpt: as §2, §3, §4

[7] = test system: ASPC-1 (human pancreatic cancer cells); experiment: Tumor cell proliferation inhibition (CCK8); assay type: cell-based; conditions: ASPC1, 72 h
Excerpt: as §2, §3, §4

[8] = test system: M14 (human malignant melanoma cells); experiment: Tumor cell proliferation inhibition (CCK8); assay type: cell-based; conditions: 72 h
Excerpt: as §2, §3, §4

[9] = test system: LoVo (human colon cancer cells); experiment: Tumor cell proliferation inhibition (CCK8); assay type: cell-based; conditions: 72 h
Excerpt: as §2, §3, §4

[10] = test system: SiHa (human cervical cancer cells); experiment: Tumor cell proliferation inhibition (CCK8); assay type: cell-based; conditions: 72 h
Excerpt: as §2, §3, §4

[11] = test system: HCCLM3 (human highly metastatic hepatocellular carcinoma cells); experiment: Tumor cell proliferation inhibition (CCK8); assay type: cell-based; conditions: 72 h
Excerpt: as §2, §3, §4

[12] = test system: human gastric cancer cell MKN45 xenograft tumors; experiment: In vivo tumor-inhibitory activity of PTX-AI, MKN45 xenograft; parameters: species or system BALB/c nude mice; conditions: 5.28 µmol/Kg, once every 3 days, 21 days
Protocol: as §1
Human gastric cancer cells MKN-45 in the vigorous growth stage were taken and inoculated subcutaneously into the right axilla of BALB/c nude mice under sterile conditions, with a cell inoculation amount of 5×10^6. The diameter of transplanted tumors in nude mice was measured with a vernier caliper. When the tumors grew to approximately 50mm^3, […] tumor-bearing nude mice with good growth status and relatively uniform tumor size were selected, and divided into 6 groups, including 10 mice in the model group and 8 mice in each of the remaining groups. The anti-tumor effect of the test substance was dynamically observed by measuring the tumor diameter. The tumor diameter was measured every other day, and the body weight of the nude mice was weighed simultaneously during the measurement of the tumor diameter. After 21 days of administration, the nude mice were euthanized, the tumor inhibition rate (%) was calculated, and the tumor masses were peeled off and weighed. Table 3 Detection of In Vivo Tumor-Inhibitory Activity of PTX-AI

[13] = test system: MKN45 (human highly metastatic gastric cancer cells); experiment: Tumor cell proliferation inhibition (CCK8); assay type: cell-based; conditions: MKN-45, 72 h
Excerpt: as §2, §3
as §4, with “h.” for “h. After incubation, the absorbance was measured at 450 nm, and the tumor cell proliferation inhibition rate was calculated. The efficiency ratio was the ratio of the IC50 value of the free drug to that of the polypeptide conjugate. Table 1 Tumor cell proliferation inhibition rates of polypeptide conjugates”

[14] = test system: A431 (human epidermal cancer cells); experiment: Tumor cell proliferation inhibition (CCK8); assay type: cell-based; conditions: A-431, 72 h
Excerpt: as §2, §3
as §4, with “h.” for “h. After incubation, the absorbance was measured at 450 nm, and the tumor cell proliferation inhibition rate was calculated. The efficiency ratio was the ratio of the IC50 value of the free drug to that of the polypeptide conjugate. Table 1 Tumor cell proliferation inhibition rates of polypeptide conjugates”

[15] = test system: MGC-803 (human gastric cancer cells); experiment: Tumor cell proliferation inhibition (CCK8); assay type: cell-based; conditions: 72 h
Excerpt: as §2, §3
as §4, with “h.” for “h. After incubation, the absorbance was measured at 450 nm, and the tumor cell proliferation inhibition rate was calculated. The efficiency ratio was the ratio of the IC50 value of the free drug to that of the polypeptide conjugate. Table 1 Tumor cell proliferation inhibition rates of polypeptide conjugates”

[16] = test system: A2780 (human ovarian cancer cells); experiment: Tumor cell proliferation inhibition (CCK8); assay type: cell-based; conditions: 72 h
Excerpt: as §2, §3
as §4, with “h.” for “h. After incubation, the absorbance was measured at 450 nm, and the tumor cell proliferation inhibition rate was calculated. The efficiency ratio was the ratio of the IC50 value of the free drug to that of the polypeptide conjugate. Table 1 Tumor cell proliferation inhibition rates of polypeptide conjugates”

[17] = test system: Raji (human lymphoma cells); experiment: Tumor cell proliferation inhibition (CCK8); assay type: cell-based; conditions: 72 h
Excerpt: as §2, §3
as §4, with “h.” for “h. After incubation, the absorbance was measured at 450 nm, and the tumor cell proliferation inhibition rate was calculated. The efficiency ratio was the ratio of the IC50 value of the free drug to that of the polypeptide conjugate. Table 1 Tumor cell proliferation inhibition rates of polypeptide conjugates”

[18] = test system: T24 (human bladder transitional cell carcinoma cells); experiment: Tumor cell proliferation inhibition (CCK8); assay type: cell-based; conditions: 72 h
Excerpt: as §2, §3
as §4, with “h.” for “h. After incubation, the absorbance was measured at 450 nm, and the tumor cell proliferation inhibition rate was calculated. The efficiency ratio was the ratio of the IC50 value of the free drug to that of the polypeptide conjugate. Table 1 Tumor cell proliferation inhibition rates of polypeptide conjugates”

[19] = test system: BGC-823 (human gastric cancer cells); experiment: Tumor cell proliferation inhibition (CCK8); assay type: cell-based; conditions: 72 h
Excerpt: as §2, §3
as §4, with “h.” for “h. After incubation, the absorbance was measured at 450 nm, and the tumor cell proliferation inhibition rate was calculated. The efficiency ratio was the ratio of the IC50 value of the free drug to that of the polypeptide conjugate. Table 1 Tumor cell proliferation inhibition rates of polypeptide conjugates”

[20] = test system: Saos-2 (human osteosarcoma cells); experiment: Tumor cell proliferation inhibition (CCK8); assay type: cell-based; conditions: 72 h
Excerpt: as §2, §3
as §4, with “h.” for “h. After incubation, the absorbance was measured at 450 nm, and the tumor cell proliferation inhibition rate was calculated. The efficiency ratio was the ratio of the IC50 value of the free drug to that of the polypeptide conjugate. Table 1 Tumor cell proliferation inhibition rates of polypeptide conjugates”

[21] = test system: MKN45 (human highly metastatic gastric cancer cells); experiment: Tumor cell proliferation inhibition (CCK8); assay type: cell-based; conditions: IC50 of free drug / IC50 of polypeptide conjugate
Excerpt: as §2, §3, §4

[22] = test system: A431 (human epidermal cancer cells); experiment: Tumor cell proliferation inhibition (CCK8); assay type: cell-based; conditions: IC50 of free drug / IC50 of polypeptide conjugate
Excerpt: as §2, §3, §4

[23] = test system: MGC-803 (human gastric cancer cells); experiment: Tumor cell proliferation inhibition (CCK8); assay type: cell-based; conditions: IC50 of free drug / IC50 of polypeptide conjugate
Excerpt: as §2, §3, §4

[24] = test system: BGC-823 (human gastric cancer cells); experiment: Tumor cell proliferation inhibition (CCK8); assay type: cell-based; conditions: IC50 of free drug / IC50 of polypeptide conjugate
Excerpt: as §2, §3, §4

[25] = MKN45 xenograft, once every 3 days until day 21

solubility at 15 min [3]: 0.0274 µg/mL (≈ 0.0339 µM)
IC50 [4]: 5.4 nM
IC50 [5]: 33.5 nM
IC50 [6]: 0.214 nM
IC50 [7]: 4.35 nM
IC50 [8]: 3.68 nM
IC50 [9]: 992 nM
IC50 [10]: 0.235 nM
IC50 [11]: 431 nM
Structure (SMILES): CC(=O)O[C@@]12CO[C@@H]1C[C@H](O)[C@@]1(C)C(=O)[C@H](O)C3=C(C)[C@@H](OC(=O)[C@H](O)[C@@H](NC(=O)OC(C)(C)C)c4ccccc4)C[C@@](O)([C@@H](OC(=O)c4ccccc4)[C@H]21)C3(C)C [DOC, docetaxel]
Tumor Inhibition Rate [1]: 59.55%
Tumor Weight [1]: 283.00 ± 179.83 mg
body weight changes ([2]; MKN45 xenograft nude mice, during the administration period): showed weight loss
Tumor Inhibition Rate [2, 25]: 73.76±13.15%
Tumor Weight [2, 25]: 579 ± 391 mg
Final Tumor Volume ([2]; MKN45 xenograft, once every 3 days until day 21, in mm³ (unit assumed)): 256.67±391.25

solubility at 15 min [3]: 0.12 µg/mL (≈ 0.141 µM)
IC50 [11]: 9.4 nM
IC50 [13]: 3.21 nM
IC50 [14]: 0.17 nM
IC50 [15]: 23.6 nM
IC50 [16]: 0.19 nM
IC50 [17]: 43.9 nM
IC50 [18]: 38.6 nM
IC50 [19]: 8.11 nM
IC50 [20]: 0.77 nM
Structure (SMILES): CC(=O)O[C@H]1C(=O)[C@@]2(C)[C@H]([C@H](OC(=O)c3ccccc3)[C@]3(O)C[C@H](OC(=O)[C@H](O)[C@@H](NC(=O)c4ccccc4)c4ccccc4)C(C)=C1C3(C)C)[C@]1(OC(C)=O)CO[C@@H]1C[C@@H]2O [PTX, paclitaxel]
Tumor Inhibition Rate [12]: 47.6%
Tumor Weight [12]: 0.791 ± 0.151 g
Final Tumor Volume ([12]; in mm³ (unit assumed)): 782.0±105.9

Structure (SMILES): CC(=O)O[C@H]1C(=O)[C@@]2(C)[C@H]([C@H](OC(=O)c3ccccc3)[C@]3(O)C[C@H](OC(=O)[C@H](OC(=O)CCCC(=O)N[C@@H](CCCNC(=N)N)C(=O)N[C@@H](CO)C(=O)N4CCC[C@H]4C(=O)N[C@@H](Cc4ccc(O)cc4)C(=O)N[C@@H](C)C(=O)N[C@@H](CC(N)=O)C(=O)N[C@@H](CO)C(=O)O)[C@@H](NC(=O)c4ccccc4)c4ccccc4)C(C)=C1C3(C)C)[C@]1(OC(C)=O)CO[C@@H]1C[C@@H]2O [PTX-5-AI]
Efficiency Ratios [21]: 1.65
Efficiency Ratios [22]: 2.13
Efficiency Ratios [23]: 1.27
Efficiency Ratios [24]: 1.90
